Laboratory results from patent US10605810B2, “Pincers comprising antibody and aptamer conjugated via a linker which binds to the same target material and use thereof” (University-Industry Cooperation Group Of Kyung Hee …, priority 2013, dated 2020).
{NH2C6} = aminohexyl linker, H2N-(CH2)6-

Legend:
SK-BR-3 cells = assay: Cell viability by MTT reduction assay, SK-BR-3
Experimental: In order to maintain the cells in the log phase, a fresh medium was resupplied two or three times a week.
The cell viability was measured using the standard 3-(4,5-dimethylthiazol-2-yl)-2,5-diphenyltetrazolium bromide (MTT) reduction assay. Simply, cells that grow exponentially were inoculated at a density of 5×10^3 per well in a 96-well with flat bottom plate (200 μL/well) and cultured at 37° C. for 24 hours.
10 μL of MTT solution was added to each well, and the cells were further cultured at 37° C. for 4 hours. The amount of formazan product was measured at 570 nm. The cell survival fraction was calculated as a percentage of the untreated control group.

thrombin = target: T1, thrombin (Homo sapiens, UniProt P00734); conditions: read-out: Kd^app values reported in the art; cited from earlier work
T1 construct: 200 μL (2 nmol) of the thrombin solution prepared at a concentration of 10 pmol/pt was prepared; purchased Research Laboratories

HER2 epitope peptide = conditions: read-out: Kd for HER2 epitope peptide (reported); cited from earlier work
[1] = target: extracellular domain of a HER2 protein (Homo sapiens, UniProt P04626); conditions: cited from earlier work

Which IC50 (SK-BR-3 cells; Homo sapiens, SK-BR-3, 24 h, read-out: IC50 for SK-BR-3) does the source give for `COc1cccc2c1C(=O)c1c(O)c3c(c(O)c1C2=O)C[C@@](O)(C(=O)CO)C[C@@H]3O[C@H]1C[C@H](N)[C@H](O)[C@H](C)O1` [Dox, doxorubicin] here?
The IC50 was 43.9 nM.

With “15-mer DNA aptamer: 5′-H2N—(CH2)6-GGT TGG TGT GGT TGG-3′, specifically binds to thrombin” as the molecule, how does the Kd (thrombin) read?
Its Kd is 20.2 nM.

For “29-mer DNA aptamer: 5′-H2N—(CH2)6-AGTCCGTGGTAGGGCAGGTTGGGGTGACT-3′, specifically binds to thrombin”, which Kd (thrombin) is on record?
Its Kd is 3.5 nM.

B1: anti-HER2 aptamer: anti-human epidermal growth factor 2 (HER2) aptamer, SEQ ID NO: 3, purchased from Bioneers (nucleic acid)
DNA: AACCGCCCAAATCCCTAAGAGTCTGCACTTGTCATTTTGTATATGTATTTGGTTTTTGGCTCTCACAGACACACTACACACGCACA
modifications: DNA, 5' {NH2C6}, backbone not given here; further chemistry not fully specified
With B1 as the molecule, how does the “cytotoxicity against SK-BR-3 cells” value (SK-BR-3 cells; 0 nM to 100 nM, FIG. 10) read?
Its value is “does not have cytotoxicity”.

And the Kd (HER2 epitope peptide)?
The Kd was 18.9 nM.

What about the Kd [1] of the same molecule?
Its Kd is 315 nM.
